Laboratory results as given in ChEMBL document CHEMBL1201862, “PubChem BioAssay data set” (2004).
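Cultured in 96-well plates, cells were exposed to test compound for 48 hours across five concentrations. GI50 marks 50% less growth.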 Calls of active or inactive are those of the source. Rule as the data show it: active = GI50 up to about 1.1 µM and inactive = higher. Where a SMILES comes first, the peptide text is derived from it. [ ]: non-standard residue; d: D form. The star is where a group is joined. Phe(4-NO2) = N[CH](Cc1ccc([N+](=O)[O-])cc1)C(=O)O; Boc = CC(C)(C)OC(=O)*; OtBu = CC(C)(C)O*

What was measured:
Assay in all cases: NCI tumour cell line growth inhibition, 48 h
M14 = system: M14
TK-10 = system: TK-10
OVCAR-4 = system: OVCAR-4
HOP-92 = system: HOP-92
SK-MEL-28 = system: SK-MEL-28
RXF 393 = system: RXF 393
NCI-H460 = system: NCI-H460
HOP-62 = system: HOP-62
MDA-N = system: MDA-N
A549 = system: A549
U-251 = system: U-251
Malme-3M = system: Malme-3M
SN12C = system: SN12C
HCT-15 = system: HCT-15
786-0 = system: 786-0
IGROV-1 = system: IGROV-1
UACC-62 = system: UACC-62
SK-MEL-5 = system: SK-MEL-5
MOLT-4 = system: MOLT-4
K562 = system: K562
COLO 205 = system: COLO 205
HCC 2998 = system: HCC 2998
SF-295 = system: SF-295
MDA-MB-435 = system: MDA-MB-435
HL-60 = system: HL-60
HT-29 = system: HT-29
MCF7 = system: MCF7
SK-OV-3 = system: SK-OV-3
OVCAR-5 = system: OVCAR-5
PC-3 = system: PC-3
SR = system: SR
HCT-116 = system: HCT-116
LOX IMVI = system: LOX IMVI
SF-268 = system: SF-268
OVCAR-8 = system: OVCAR-8
CCRF-CEM = system: CCRF-CEM
NCI/ADR-RES = system: NCI/ADR-RES
DU-145 = system: DU-145
NCI-H522 = system: NCI-H522
EKVX = system: EKVX
RPMI-8226 = system: RPMI-8226
SNB-19 = system: SNB-19
OVCAR-3 = system: OVCAR-3
NCI-H23 = system: NCI-H23
SNB-75 = system: SNB-75
UACC-257 = system: UACC-257
KM12 = system: KM12
MDA-MB-231 = system: MDA-MB-231
UO-31 = system: UO-31
SW-620 = system: SW-620
ACHN = system: ACHN
NCI-H226 = system: NCI-H226
CAKI-1 = system: CAKI-1
SF-539 = system: SF-539
SK-MEL-2 = system: SK-MEL-2
T47D = system: T47D
A498 = system: A498
Hs-578T = system: Hs-578T

CC(=O)NC(CCC(=O)OC(C)(C)C)C(=O)NC(CCC(=O)OC(C)(C)C)C(=O)NC(Cc1ccc([N+](=O)[O-])cc1)C(=O)NC(CCCCNC(=O)OC(C)(C)C)C(=O)NC(CCCCNC(=O)OC(C)(C)C)C(=O)NCC(=O)O (centres undefined) (Ac-E(OtBu)E(OtBu)[Phe(4-NO2)]K(Boc)K(Boc)G-OH; configuration not given here)
GI50 (M14): 20.5 µM (inactive) | GI50 (TK-10): > 100 µM (inactive) | GI50 (OVCAR-4): > 100 µM (inactive) | GI50 (HOP-92): > 100 µM (inactive) | GI50 (SK-MEL-28): > 100 µM (inactive) | GI50 (RXF 393): > 100 µM (inactive) | GI50 (NCI-H460): > 100 µM (inactive) | GI50 (HOP-62): > 100 µM (inactive) | GI50 (MDA-N): > 100 µM (inactive) | GI50 (A549): > 100 µM (inactive) | GI50 (U-251): > 100 µM (inactive) | GI50 (Malme-3M): > 100 µM (inactive) | GI50 (SN12C): > 100 µM (inactive) | GI50 (HCT-15): > 100 µM | GI50 (786-0): > 100 µM (inactive) | GI50 (IGROV-1): > 100 µM (inactive) | GI50 (UACC-62): > 100 µM (inactive) | GI50 (SK-MEL-5): 7.35 µM (inactive) | GI50 (MOLT-4): > 100 µM (inactive) | GI50 (K562): > 100 µM (inactive) | GI50 (COLO 205): > 100 µM (inactive) | GI50 (HCC 2998): > 100 µM (inactive) | GI50 (SF-295): > 100 µM (inactive) | GI50 (MDA-MB-435): > 100 µM (inactive) | GI50 (HL-60): > 100 µM (inactive) | GI50 (HT-29): > 100 µM (inactive) | GI50 (MCF7): > 100 µM (inactive) | GI50 (SK-OV-3): > 100 µM (inactive) | GI50 (OVCAR-5): > 100 µM (inactive) | GI50 (PC-3): > 100 µM (inactive) | GI50 (SR): > 100 µM (inactive) | GI50 (HCT-116): > 100 µM (inactive) | GI50 (LOX IMVI): > 100 µM (inactive) | GI50 (SF-268): > 100 µM (inactive) | GI50 (OVCAR-8): > 100 µM (inactive) | GI50 (CCRF-CEM): > 100 µM (inactive) | GI50 (NCI/ADR-RES): > 100 µM (inactive) | GI50 (DU-145): > 100 µM (inactive) | GI50 (NCI-H522): > 100 µM (inactive) | GI50 (EKVX): > 100 µM (inactive) | GI50 (RPMI-8226): > 100 µM (inactive) | GI50 (SNB-19): > 100 µM (inactive) | GI50 (OVCAR-3): > 100 µM (inactive) | GI50 (NCI-H23): > 100 µM (inactive) | GI50 (SNB-75): > 100 µM (inactive) | GI50 (UACC-257): > 100 µM (inactive) | GI50 (KM12): > 100 µM (inactive) | GI50 (MDA-MB-231): > 100 µM (inactive) | GI50 (UO-31): > 100 µM (inactive) | GI50 (SW-620): > 100 µM (inactive) | GI50 (ACHN): > 100 µM (inactive) | GI50 (NCI-H226): > 100 µM (inactive) | GI50 (CAKI-1): > 100 µM (inactive) | GI50 (SF-539): > 100 µM (inactive) | GI50 (SK-MEL-2): 75.2 µM (inactive) | GI50 (T47D): > 100 µM (inactive)

Cc1ncc([N+](=O)[O-])n1CCn1ccnc1[N+](=O)[O-]
GI50 (TK-10): 15.7 µM (inactive) | GI50 (SK-MEL-28): > 100 µM (inactive) | GI50 (NCI-H460): > 100 µM (inactive) | GI50 (HOP-62): > 100 µM (inactive) | GI50 (A549): 54.2 µM (inactive) | GI50 (U-251): > 100 µM (inactive) | GI50 (Malme-3M): 72.1 µM (inactive) | GI50 (SN12C): 61.7 µM (inactive) | GI50 (HCT-15): > 100 µM | GI50 (786-0): > 100 µM (inactive) | GI50 (SK-MEL-5): 38.3 µM (inactive) | GI50 (MOLT-4): > 100 µM (inactive) | GI50 (K562): > 100 µM (inactive) | GI50 (A498): 61.9 µM (inactive) | GI50 (HCC 2998): > 100 µM (inactive) | GI50 (SF-295): > 100 µM (inactive) | GI50 (HL-60): > 100 µM (inactive) | GI50 (HT-29): > 100 µM (inactive) | GI50 (MCF7): > 100 µM (inactive) | GI50 (OVCAR-5): > 100 µM (inactive) | GI50 (PC-3): 80.9 µM (inactive) | GI50 (SR): > 100 µM (inactive) | GI50 (HCT-116): > 100 µM (inactive) | GI50 (SF-268): > 100 µM (inactive) | GI50 (OVCAR-8): 34.8 µM (inactive) | GI50 (CCRF-CEM): > 100 µM (inactive) | GI50 (NCI-H522): > 100 µM (inactive) | GI50 (EKVX): 35.2 µM (inactive) | GI50 (RPMI-8226): > 100 µM (inactive) | GI50 (OVCAR-3): > 100 µM (inactive) | GI50 (NCI-H23): > 100 µM (inactive) | GI50 (SNB-75): > 100 µM (inactive) | GI50 (UACC-257): > 100 µM (inactive) | GI50 (Hs-578T): > 100 µM (inactive) | GI50 (KM12): > 100 µM (inactive) | GI50 (SW-620): 74.6 µM (inactive) | GI50 (ACHN): > 100 µM (inactive) | GI50 (NCI-H226): > 100 µM (inactive) | GI50 (SF-539): > 100 µM (inactive) | GI50 (SK-MEL-2): 58.6 µM (inactive)

CC(=O)OCC1OC(O[C@@H]2C[C@H]3C(C)(C)[C@H](OC(C)=O)CC[C@]3(C)[C@H]3CC[C@@H]4[C@]5(CC[C@@]4(C)[C@@]32C)O[C@@H]([C@H](O)C(C)(C)O)C[C@@H]5C)C(O)C(O)C1O (some centres undefined)
GI50 (RXF 393): 4.4 µM (inactive) | GI50 (U-251): 6.05 µM (inactive) | GI50 (CAKI-1): 3.23 µM (inactive)

CCCCCCCCNC(=S)N/C=C1\C(=O)Oc2ccccc2C1=O
GI50 (M14): 19.3 µM (inactive) | GI50 (OVCAR-4): 13.2 µM (inactive) | GI50 (SK-MEL-28): 16.1 µM (inactive) | GI50 (RXF 393): 16 µM (inactive) | GI50 (NCI-H460): 14.4 µM (inactive) | GI50 (HOP-62): 13.5 µM (inactive) | GI50 (MDA-N): 18.1 µM (inactive) | GI50 (A549): 17.2 µM (inactive) | GI50 (SN12C): 19.8 µM (inactive) | GI50 (HCT-15): 12.2 µM | GI50 (UACC-62): 6.85 µM (inactive) | GI50 (SK-MEL-5): 15.3 µM (inactive) | GI50 (MOLT-4): 12.4 µM (inactive) | GI50 (K562): 16.3 µM (inactive) | GI50 (A498): 16 µM (inactive) | GI50 (COLO 205): 15 µM (inactive) | GI50 (HCC 2998): 11.4 µM (inactive) | GI50 (SF-295): 14.1 µM (inactive) | GI50 (OVCAR-5): 12.6 µM (inactive) | GI50 (PC-3): 14.4 µM (inactive) | GI50 (HCT-116): 15.6 µM (inactive) | GI50 (LOX IMVI): 7.05 µM (inactive) | GI50 (SF-268): 10 µM (inactive) | GI50 (OVCAR-8): 19.5 µM (inactive) | GI50 (CCRF-CEM): 11.1 µM (inactive) | GI50 (NCI/ADR-RES): 19 µM (inactive) | GI50 (DU-145): 19.2 µM (inactive) | GI50 (NCI-H522): 7.19 µM (inactive) | GI50 (EKVX): 28.2 µM (inactive) | GI50 (OVCAR-3): 12.6 µM (inactive) | GI50 (NCI-H23): 21.1 µM (inactive) | GI50 (SNB-75): 14.2 µM (inactive) | GI50 (UACC-257): 19.1 µM (inactive) | GI50 (KM12): 13.6 µM (inactive) | GI50 (MDA-MB-231): 15.9 µM (inactive) | GI50 (ACHN): 14.8 µM (inactive) | GI50 (NCI-H226): 23.8 µM (inactive) | GI50 (SF-539): 17.6 µM (inactive) | GI50 (SK-MEL-2): 22.5 µM (inactive) | GI50 (T47D): 65.8 µM (inactive)
